Key:
[1] = Solubility determination; conditions: for Sol6: pH 6; for Sol7: pH 7
How it was run: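 First, TFA-salt peptide was added to 0.1 M sodium diphosphate (pH 6.4 or 7.0) to 10 mg/ml and shaken 2 h at room temperature. Next, insoluble material was filtered off. Finally, filtrate and control, each 1 mg/ml in 50% acetonitrile, were compared by reversed-phase chromatography.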

[2] = target: T1, Human Neuropeptide Y2 Receptor (Homo sapiens, UniProt P49146); experiment: Radioligand binding competition assay (RLB); conditions: Table 3, 125I-PYY(1-36) competition; read-out: Ki
T1 construct: purchased CHEMICON HTS066M
T1 sequence (P49146 1-381): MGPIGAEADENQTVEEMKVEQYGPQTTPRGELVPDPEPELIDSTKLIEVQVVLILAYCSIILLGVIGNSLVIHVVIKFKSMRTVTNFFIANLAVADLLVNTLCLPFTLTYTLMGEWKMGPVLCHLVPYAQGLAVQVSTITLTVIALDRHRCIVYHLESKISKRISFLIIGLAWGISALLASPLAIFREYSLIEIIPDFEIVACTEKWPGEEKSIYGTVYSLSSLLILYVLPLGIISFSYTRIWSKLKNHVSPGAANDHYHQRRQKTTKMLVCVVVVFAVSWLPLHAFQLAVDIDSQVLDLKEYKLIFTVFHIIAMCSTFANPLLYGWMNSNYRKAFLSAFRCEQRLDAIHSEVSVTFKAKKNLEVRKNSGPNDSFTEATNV
How it was run: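 Receptor membranes, 0.5 μg/well; buffer 50 mM HEPES/5 mM MgCl2/1 mM CaCl2/0.2% ovalbumin, pH 7.4; 2 h RT, shaking. GF/C filtration, cold HEPES/500 mM NaCl wash, scintillation count. IC50 by nonlinear regression.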

Row | SMILES | Sol6 [1] [mg/mL] | Sol7 [1] [mg/mL] | Ki [2] [nM]
1 | CC(C)CC(=O)N[C@@H](C)C(=O)N1CCC[C@H]1C(=O)N[C@@H](CCC(=O)O)C(=O)N[C@@H](CCCCNC(=O)CCCCCNC(=O)CC[C@H](NC(=O)CCCCCCCCCCCCCCCCC(=O)O)C(=O)O)C(=O)N1CCC[C@H]1C(=O)N[C@@H](CCC(=O)O)C(=O)N[C@@H](CCC(=O)O)C(=O)N[C@@H](CC(C)C)C(=O)N[C@@H](C)C(=O)N[C@H](C(=O)N1CCC[C@H]1C(=O)N[C@@H](CCC(=O)O)C(=O)N[C@@H](CCC(=O)O)C(=O)N[C@@H](CC(C)C)C(=O)N[C@@H](CCC(N)=O)C(=O)N[C@@H](CCCNC(=N)N)C(=O)N[C@@H](Cc1ccc(O)cc1)C(=O)N[C@@H](Cc1ccc(O)cc1)C(=O)N[C@H](C(=O)N[C@@H](CO)C(=O)N[C@@H](CC(C)C)C(=O)N[C@@H](CCCNC(=N)N)C(=O)N[C@@H](Cc1c[nH]cn1)C(=O)N[C@@H](Cc1ccc(O)cc1)C(=O)N[C@@H](Cc1ccc(O)cc1)C(=O)N[C@@H](CC(N)=O)C(=O)N[C@@H](Cc1c[nH]c2ccccc12)C(=O)N[C@@H](CC(C)C)C(=O)N[C@H](C(=O)N[C@@H](CCCNC(=N)N)C(=O)N[C@@H](CCC(N)=O)C(=O)N[C@@H](CCCNC(=N)N)C(=O)N[C@@H](Cc1ccc(O)cc1)C(N)=O)[C@@H](C)O)C(C)C)[C@@H](C)O [Compound 153, N{alpha-4}-(3-methylbutanoyl)-N{epsilon-7}-(6-[(4S)-4-carboxy-4-(17-carboxyheptadecanamido)butanamido]hexanoyl)-[4A,7K,9E,11L,13T,18Q,22V,28Y,30W,31L]-hPYY(4-36)] | 6.0 | 9.5 | 6.8
2 | CC(C)CC(=O)N[C@@H](C)C(=O)N1CCC[C@H]1C(=O)N[C@@H](CCC(=O)O)C(=O)N[C@@H](CCCCNC(=O)CCCCCNC(=O)CC[C@H](NC(=O)CCCCCCCCCCCCCCCCC(=O)O)C(=O)O)C(=O)N1CCC[C@H]1C(=O)N[C@@H](CCC(=O)O)C(=O)N[C@@H](CCC(=O)O)C(=O)N[C@@H](CC(=O)O)C(=O)N[C@@H](C)C(=O)N[C@H](C(=O)N1CCC[C@H]1C(=O)N[C@@H](CCC(=O)O)C(=O)N[C@@H](CCC(=O)O)C(=O)N[C@@H](CCC(=O)O)C(=O)N[C@@H](CCC(N)=O)C(=O)N[C@@H](CCCNC(=N)N)C(=O)N[C@@H](Cc1ccc(O)cc1)C(=O)N[C@@H](Cc1ccc(O)cc1)C(=O)N[C@H](C(=O)N[C@@H](CO)C(=O)N[C@@H](CC(C)C)C(=O)N[C@@H](CCCNC(=N)N)C(=O)N[C@@H](Cc1c[nH]cn1)C(=O)N[C@@H](Cc1ccc(O)cc1)C(=O)N[C@@H](Cc1ccc(O)cc1)C(=O)N[C@@H](CC(N)=O)C(=O)N[C@@H](Cc1c[nH]c2ccccc12)C(=O)N[C@@H](CC(C)C)C(=O)N[C@H](C(=O)N[C@@H](CCCNC(=N)N)C(=O)N[C@@H](CCC(N)=O)C(=O)N[C@@H](CCCNC(=N)N)C(=O)N[C@@H](Cc1ccc(O)cc1)C(N)=O)[C@@H](C)O)C(C)C)[C@@H](C)O [Compound 162, N{alpha-4}-(3-methylbutanoyl)-N{epsilon-7}-(6-[(4S)-4-carboxy-4-(17-carboxyheptadecanamido)butanamido]hexanoyl)-[4A,7K,9E,13T,17E,18Q,22V,28Y,30W,31L]-hPYY(4-36)] | 9.0 | 9.3 | 14.9
3 | CC(C)CC(=O)N[C@@H](C)C(=O)N1CCC[C@H]1C(=O)N[C@@H](CCC(=O)O)C(=O)N[C@@H](CCCCNC(=O)CCCCCNC(=O)CC[C@H](NC(=O)CCCCCCCCCCCCCCCCC(=O)O)C(=O)O)C(=O)N1CCC[C@H]1C(=O)N[C@@H](CCC(=O)O)C(=O)N[C@@H](CCC(=O)O)C(=O)N[C@@H](CC(=O)O)C(=O)N[C@@H](C)C(=O)N[C@H](C(=O)N1CCC[C@H]1C(=O)N[C@@H](CCC(=O)O)C(=O)N[C@@H](CCC(=O)O)C(=O)N[C@@H](CC(C)C)C(=O)N[C@@H](CCC(N)=O)C(=O)N[C@@H](CCCNC(=N)N)C(=O)N[C@@H](Cc1ccc(O)cc1)C(=O)N[C@@H](Cc1ccc(O)cc1)C(=O)N[C@H](C(=O)N[C@@H](CO)C(=O)N[C@@H](CC(C)C)C(=O)N[C@@H](CCCNC(=N)N)C(=O)N[C@@H](Cc1c[nH]cn1)C(=O)N[C@@H](Cc1ccc(O)cc1)C(=O)N[C@@H](Cc1ccc(O)cc1)C(=O)N[C@@H](CC(N)=O)C(=O)N[C@@H](Cc1c[nH]c2ccccc12)C(=O)N[C@@H](CC(C)C)C(=O)N[C@@H](CC(C)C)C(=O)N[C@@H](CCCNC(=N)N)C(=O)N[C@@H](CCC(N)=O)C(=O)N[C@@H](CCCNC(=N)N)C(=O)N[C@@H](Cc1ccc(O)cc1)C(N)=O)C(C)C)[C@@H](C)O [Compound 137, N{alpha-4}-(3-methylbutanoyl)-N{epsilon-7}-(6-[(4S)-4-carboxy-4-(17-carboxyheptadecanamido)butanamido]hexanoyl)-[4A,7K,9E,13T,18Q,22V,28Y,30W,31L,32L]-hPYY(4-36)] | >10.0 | >10.0 | 49.6

More lines, now with the values ahead:

Row | Sol6 [1] [mg/mL] | Sol7 [1] [mg/mL] | Ki [2] [nM] | SMILES
4 | 8.2 | 9.7 | 1.68 | CC(C)CC(=O)N[C@@H](C)C(=O)N1CCC[C@H]1C(=O)N[C@@H](CCC(=O)O)C(=O)N[C@@H](CCCCNC(=O)CCCCCNC(=O)CC[C@H](NC(=O)CCCCCCCCCCCCCCCCC(=O)O)C(=O)O)C(=O)N1CCC[C@H]1C(=O)N[C@@H](CCC(=O)O)C(=O)N[C@@H](CCC(=O)O)C(=O)N[C@@H](CC(=O)O)C(=O)N[C@@H](CO)C(=O)N[C@@H](CO)C(=O)N1CCC[C@H]1C(=O)N[C@@H](CCC(=O)O)C(=O)N[C@@H](CCC(=O)O)C(=O)N[C@@H](CC(C)C)C(=O)N[C@@H](CCC(N)=O)C(=O)N[C@@H](CCCNC(=N)N)C(=O)N[C@@H](Cc1ccc(O)cc1)C(=O)N[C@@H](Cc1ccc(O)cc1)C(=O)N[C@H](C(=O)N[C@@H](C)C(=O)N[C@@H](CC(C)C)C(=O)N[C@@H](CCCNC(=N)N)C(=O)N[C@@H](Cc1c[nH]cn1)C(=O)N[C@@H](Cc1ccc(O)cc1)C(=O)N[C@@H](Cc1ccc(O)cc1)C(=O)N[C@@H](CC(N)=O)C(=O)N[C@@H](Cc1c[nH]c2ccccc12)C(=O)N[C@@H](CC(C)C)C(=O)N[C@H](C(=O)N[C@@H](CCCNC(=N)N)C(=O)N[C@@H](CCC(N)=O)C(=O)N[C@@H](CCCNC(=N)N)C(=O)N[C@@H](Cc1ccc(O)cc1)C(N)=O)[C@@H](C)O)C(C)C [Compound 151, N{alpha-4}-(3-methylbutanoyl)-N{epsilon-7}-(6-[(4S)-4-carboxy-4-(17-carboxyheptadecanamido)butanamido]hexanoyl)-[4A,7K,9E,12S,18Q,22V,23A,28Y,30W,31L]-hPYY(4-36)]
5 | 10.0 | >10.0 | 6.42 | CC(C)CC(=O)N[C@@H](C)C(=O)N1CCC[C@H]1C(=O)N[C@@H](CCC(=O)O)C(=O)N[C@@H](CCCCNC(=O)CCCCCNC(=O)CC[C@H](NC(=O)CCCCCCCCCCCCCCCCC(=O)O)C(=O)O)C(=O)N1CCC[C@H]1C(=O)N[C@@H](CCC(=O)O)C(=O)N[C@@H](CCC(=O)O)C(=O)N[C@@H](CC(=O)O)C(=O)N[C@@H](C)C(=O)N[C@H](C(=O)N1CCC[C@H]1C(=O)N[C@@H](CCC(=O)O)C(=O)N[C@@H](CCC(=O)O)C(=O)N[C@@H](CC(C)C)C(=O)N[C@@H](CCC(N)=O)C(=O)N[C@@H](CCCNC(=N)N)C(=O)N[C@@H](Cc1ccc(O)cc1)C(=O)N[C@@H](Cc1ccc(O)cc1)C(=O)N[C@H](C(=O)N[C@@H](CCC(=O)O)C(=O)N[C@@H](CC(C)C)C(=O)N[C@@H](CCCNC(=N)N)C(=O)N[C@@H](Cc1c[nH]cn1)C(=O)N[C@@H](Cc1ccc(O)cc1)C(=O)N[C@@H](Cc1ccc(O)cc1)C(=O)N[C@@H](CC(N)=O)C(=O)N[C@@H](Cc1c[nH]c2ccccc12)C(=O)N[C@@H](CC(C)C)C(=O)N[C@H](C(=O)N[C@@H](CCCNC(=N)N)C(=O)N[C@@H](CCC(N)=O)C(=O)N[C@@H](CCCNC(=N)N)C(=O)N[C@@H](Cc1ccc(O)cc1)C(N)=O)[C@@H](C)O)C(C)C)[C@@H](C)O [Compound 110, N{alpha-4}-(3-methylbutanoyl)-N{epsilon-7}-(6-[(4S)-4-carboxy-4-(17-carboxyheptadecanamido)butanamido]hexanoyl)-[4A,7K,9E,13T,18Q,22V,23E,28Y,30W,31L]-hPYY(4-36)]
6 | 9.8 | 9.9 | 1.98 | CC(C)CC(=O)N[C@@H](C)C(=O)N1CCC[C@H]1C(=O)N[C@@H](CCC(=O)O)C(=O)N[C@@H](CCCCNC(=O)CCCCCNC(=O)CC[C@H](NC(=O)CCCCCCCCCCCCCCCCC(=O)O)C(=O)O)C(=O)N1CCC[C@H]1C(=O)N[C@@H](CCC(=O)O)C(=O)N[C@@H](CCC(=O)O)C(=O)N1CCC[C@H]1C(=O)N[C@@H](C)C(=O)N[C@H](C(=O)N1CCC[C@H]1C(=O)N[C@@H](CCC(=O)O)C(=O)N[C@@H](CCC(=O)O)C(=O)N[C@@H](CC(C)C)C(=O)N[C@@H](CCC(N)=O)C(=O)N[C@@H](CCCNC(=N)N)C(=O)N[C@@H](Cc1ccc(O)cc1)C(=O)N[C@@H](Cc1ccc(O)cc1)C(=O)N[C@H](C(=O)N[C@@H](CO)C(=O)N[C@@H](CC(C)C)C(=O)N[C@@H](CCCNC(=N)N)C(=O)N[C@@H](Cc1c[nH]cn1)C(=O)N[C@@H](Cc1ccc(O)cc1)C(=O)N[C@@H](Cc1ccc(O)cc1)C(=O)N[C@@H](CC(N)=O)C(=O)N[C@@H](Cc1c[nH]c2ccccc12)C(=O)N[C@@H](CC(C)C)C(=O)N[C@H](C(=O)N[C@@H](CCCNC(=N)N)C(=O)N[C@@H](CCC(N)=O)C(=O)N[C@@H](CCCNC(=N)N)C(=O)N[C@@H](Cc1ccc(O)cc1)C(N)=O)[C@@H](C)O)C(C)C)[C@@H](C)O [Compound 42, N{alpha-4}-(3-methylbutanoyl)-N{epsilon-7}-(6-[(4S)-4-carboxy-4-(17-carboxyheptadecanamido)butanamido]hexanoyl)[4A,7K,9E,11P,13T,18Q,22V,28Y,30W,31L]-hPYY(4-36)]

Source: US12391737B2, “Soluble NPY2 receptor agonists” (Boehringer Ingelheim International GmbH, priority 2020, dated 2025)
